Source: patent US12421216B2, “Voruciclib polymorphs and methods of making and using thereof” (MEI PHARMA, INC., priority 2019, dated 2025)
Values after ≈ are worked out from the molar mass of the structure shown. “Also recorded” adds a separate entry of the source.

Tests used:
Type in all cases: physicochemical
[1] = Physical stability of solid forms upon drying under vacuum, HT-XRPD
Experimental: (§1) Amorphous voruciclib oxalate salt, generated by freeze-drying, was used to start the thermocycling experiments. Suspensions were prepared in the selected solvent systems at RT. Subsequently, the mixtures were subjected to a temperature profile. After the temperature profile, the solids were separated from the solutions by centrifugation and were dried at ambient conditions and under deep vacuum before being harvested and analyzed by HT-XRPD. The liquid phases were also dried under deep vacuum before being harvested and analyzed by HT-XRPD. All solids were exposed to AAC (40° C./75% RH, 2 days).
(§2) After the temperature profile, the solids were separated from the liquids by centrifugation and the solid phase was dried at ambient conditions and under deep vacuum (5 mbar) before being harvested and analyzed by HT-XRPD. The liquid phases were dried under deep vacuum (5 mbar) and the recovered solids were analyzed by HT-XRPD. All solids were then exposed to accelerated aging conditions (40° C./75% RH, 2 days) followed by HT-XRPD re-analysis.
as §1, with “voruciclib phosphate” for “voruciclib oxalate”, “profile. Upon completion of” for “profile. After”, “dried under” for “dried at”
as §2, with “dried under” for “dried at”, “(5 mbar, 18 h)” for “(5 mbar)”
Amorphous voruciclib malonate salt, generated by freeze-drying, was used to start the thermocycling experiments. Suspensions were prepared in the selected solvent systems at RT and were subjected to three thermocycles between 50 and 5° C., followed by aging at 25° C. for 3 days. Upon completion of the aging time, the solids were separated from the liquids by centrifugation and they were dried at ambient conditions and under deep vacuum (5 mbar) before being harvested and analyzed by HT-XRPD.
After the temperature profile the solids were separated from the solution by centrifugation and they were dried at ambient conditions and under deep vacuum before being harvested and analyzed by HT-XRPD.

[2] = Physical stability upon exposure to accelerated aging conditions (AAC, 40° C./75% RH), re-analysis by HT-XRPD
[3] = Solubility of salts in water and in 0.2 M phosphate buffer pH 6 at 37° C. after 4 hours (HPLC-DAD); settings: for pH (4 h): pH at end of equilibration
Experimental: Two sets of solubility experiments were performed. […] In the second set of solubility experiments about 5 mg of the salt was weighed in a standard 1.8 mL HPLC vial. Subsequently, aliquots of 200 μL of aqueous medium were added up to a maximum of 1 mL, while making observations regarding the dissolution behavior of the salts. The vials were left to equilibrate at 37° C. with continuous stirring (see Table 25 for details). After 4 hours the solids were separated from the liquid by centrifugation and the liquid phase was further filtrated through a […] PTFE filter to remove any particulate matter. The concentration of solute was determined by HPLC-DAD analysis. A calibration curve was made from two independent stock solutions of voruciclib prepared in acetonitrile/water. The pH was recorded at the end of the equilibration time.

[4] = Approximate solubility assessment of the free base by the solvent (aliquot) addition method; settings: for Solubility in words / solubility: RT; for solubility: thermodynamic from solid
Experimental: The approximate solubility of the free base was assessed in several organic solvents (Table 17) by the solvent addition method. To about 5 mg of free base, aliquots of solvent were added until complete dissolution was observed or until a concentration […] was reached. Aliquots of 100 μL were used up to 2 mL, followed by aliquots of 1 mL up to 8 mL. […] Based on the solubility results, in some embodiments the crystallization solvents selected for salt formation were THF, ethanol and acetone.
The solubility assessment was performed according to the aliquot addition method and visually assessed. About 5 mg of free base was weighed into 8 mL glass vials. Aliquots of 100 μL were added up to 2 mL, followed by aliquots of 1 mL up to 8 mL. The experimental conditions are described in Table 21.

[5] = Thermal stability of the free base in solution (HPLC); settings: for Area (HPLC): 1 h
[6] = 0.2M phosphate buffer pH 6, 37° C., about 1 mg salt in 1 mL
[7] = 0.2M phosphate buffer pH 6, 37° C., about 5 mg salt in 1 mL
[8] = water, 37° C., about 1 mg salt in 1 mL
[9] = water, 37° C., about 5 mg salt, up to 1 mL

For `CN1CC[C@@H](c2c(O)cc(O)c3c(=O)cc(-c4ccc(C(F)(F)F)cc4Cl)oc23)[C@@H]1CO.CN1CC[C@@H](c2c(O)cc(O)c3c(=O)cc(-c4ccc(C(F)(F)F)cc4Cl)oc23)[C@@H]1CO.O.O=C(O)C(=O)O` [Oxa1], the Vacuum ([1]; oxalate salt cooling crystallization, form after drying under deep vacuum (5 mbar), label = ambient-dried form) was “Oxa1”, the “Physical stability upon drying under deep/high vacuum” value ([1]; oxalate, phosphate, malonate forms, 5 mbar, 18 h) was “physically stable” and the “Physical stability upon exposure to AAC” value ([2]; 40° C./75% RH, 2 days, HT-XRPD before and after) was “stable when exposed to advanced aging conditions; also recorded: physically stable under short term stress conditions; also recorded: physically stable upon exposure to AAC for two days; also recorded: remained stable upon exposure to AAC”. The “Stability AAC” value ([2]; oxalate salt cooling crystallization solids, AAC (40° C./75% RH, 1 day)) was “Stable”, the “Solid forms Vacuum AAC” value ([2]; oxalate salt thermocycling, vacuum-dried solids after AAC (40° C./75% RH, 2 days), HT-XRPD) was “Oxa1” and the “Solid phase AAC (XRPD form after accelerated aging)” value ([2]; precipitated solids of the salt screen, dried under vacuum at 50° C., 40° C./75% RH for 2 days, HT-XRPD) was “Oxa1”. The “Stable during AAC” value ([2]; salt screen solids, 40° C./75% RH, 2 days) was “Yes”, the “Solubility in phosphate buffer” value ([3]; 0.2 M phosphate buffer pH 6, 37° C., 4 hours) was 0.03 mg/mL and the solubility ([3]; 0.2M phosphate buffer pH 6, 37° C., 4 hours, about 1 mg salt in 1 mL) was 0.02 mg/mL. The solubility ([3]; 0.2M phosphate buffer pH 6, 37° C., 4 hours, about 5 mg salt in 1 mL) was 0.03 mg/mL, the “Solids recovered / salt dissociation after solubility determination in buffer” value ([3]; 0.2 M phosphate buffer pH 6, 37° C., 4 hours, XRPD) was “The salt had dissociated in the buffer” and the “Form (4 h) of residual solid” value [3, 6] was “Am”. The “pH (4 h)” value [3, 6] was 6.0, the “Form (4 h) of residual solid” value [3, 7] was “Free” and the “pH (4 h)” value [3, 7] was 5.8. For the same compound, the solubility ([3]; water, 37° C., 4 hours, about 1 mg salt in 1 mL) was “hazy”, the solubility ([3]; water, 37° C., 4 hours, about 5 mg salt, up to 1 mL) was “hazy” and the “Solids recovered after solubility determination in water” value ([3]; water, 37° C., 4 hours, XRPD) was “The residual solids of the suspension were identical to Oxa1”. For the same compound, the “Form (4 h) of residual solid” value [3, 8] was “Free”, the “pH (4 h)” value [3, 8] was 4.4 and the “Form (4 h) of residual solid” value [3, 9] was “Oxa1”. The “pH (4 h)” value [3, 9] was 4.3.
With `CN1CC[C@@H](c2c(O)cc(O)c3c(=O)cc(-c4ccc(C(F)(F)F)cc4Cl)oc23)[C@@H]1CO` [Voruciclib, (+)-trans-2-(2-chloro-4-trifluoromethylphenyl)-5,7-dihydroxy-8-(2-hydroxymethyl-1-methylpyrrolidin-3-yl)-chromen-4-one] the “Solubility at RT” value ([4]; 1,4-Dioxane) was roughly 1 mg/mL (≈ 2.13 mM), the “Solubility at RT” value ([4]; 2-Propanol) was roughly 8 mg/mL (≈ 17 mM) and the “Solubility at RT” value ([4]; Acetonitrile) was roughly 5 mg/mL (≈ 10.6 mM). For the same compound, the “Solubility at RT” value ([4]; Chloroform) was roughly 5 mg/mL (≈ 10.6 mM), the “Solubility at RT” value ([4]; Ethyl acetate) was roughly 1 mg/mL (≈ 2.13 mM) and the Solubility in words ([4]; THF) was “soluble”. The “Solubility at RT” value ([4]; Water) was less than 1 mg/mL, the Solubility in words ([4]; methanol, ethanol and acetone) was “sparingly soluble” and the solubility ([4]; organic solvent or mixture, 1,4-Dioxane, approximate, solvent addition, read-out: Solubility) was roughly 1000 µg/mL (≈ 2.13 mM). For the same compound, the solubility ([4]; organic solvent or mixture, 2-Propanol, approximate, solvent addition, read-out: Solubility) was roughly 8000 µg/mL (≈ 17 mM), the solubility ([4]; organic solvent or mixture, Acetone, approximate, solvent addition, read-out: Solubility) was 10000 to 13000 µg/mL (≈ 21.3 to 27.7 mM) and the solubility ([4]; organic solvent or mixture, Acetonitrile, approximate, solvent addition, read-out: Solubility) was roughly 5000 µg/mL (≈ 10.6 mM). For the same compound, the solubility ([4]; organic solvent or mixture, Chloroform, approximate, solvent addition, read-out: Solubility) was roughly 5000 µg/mL (≈ 10.6 mM), the solubility ([4]; organic solvent or mixture, Ethanol, approximate, solvent addition, read-out: Solubility) was 14000 to 18000 µg/mL (≈ 29.8 to 38.3 mM) and the solubility ([4]; organic solvent or mixture, Ethyl acetate, approximate, solvent addition, read-out: Solubility) was roughly 1000 µg/mL (≈ 2.13 mM). It also gave a solubility ([4]; organic solvent or mixture, Methanol, approximate, solvent addition, read-out: Solubility) of 17000 to 26000 µg/mL (≈ 36.2 to 55.3 mM), a solubility ([4]; organic solvent or mixture, Tetrahydrofuran, approximate, solvent addition, read-out: Solubility) of 30000 to 60000 µg/mL (≈ 63.9 to 128 mM) and a solubility ([4]; organic solvent or mixture, solvents other than THF, methanol, ethanol, acetone, read-out: Solubility in other solvents) of less than 10000 µg/mL. The solubility ([4]; Water, approximate, solvent addition, read-out: Solubility) was less than 1000 µg/mL, the Solubility in words ([4]; water) was “practically insoluble” and the “Solubility pH 6” value ([3]; 0.2M phosphate buffer (pH 6), 37° C., 4 hours, listed as Voruciclib Free base) was 0.01 mg/mL. For the same compound, the Solubility water ([3]; water, 37° C., 4 hours, listed as Voruciclib Free base) was less than 0.01 mg/mL, the “Area (HPLC)” value ([5]; Acetone solution, 25° C.) was 1562.10 mAu*s and the “Area (HPLC)” value ([5]; Acetone solution, 50° C.) was 1566.22 mAu*s. The “Area (HPLC)” value ([5]; Acetone solution, 80° C.) was 1566.56 mAu*s, the “Area (HPLC)” value ([5]; Ethanol solution, 25° C.) was 1633.32 mAu*s and the “Area (HPLC)” value ([5]; Ethanol solution, 50° C.) was 1625.98 mAu*s. The “Area (HPLC)” value ([5]; Ethanol solution, 80° C.) was 1625.83 mAu*s, the “Thermal stability in solution” value ([5]; THF, ethanol, acetone solutions, RT 24 h, 50° C. and 80° C. 1 h, HPLC purity) was “thermally stable in solution” and the “Area (HPLC)” value ([5]; Tetrahydrofuran solution, 25° C.) was 1697.99 mAu*s. For the same compound, the “Area (HPLC)” value ([5]; Tetrahydrofuran solution, 50° C.) was 1713.96 mAu*s and the “Area (HPLC)” value ([5]; Tetrahydrofuran solution, 80° C.) was 1701.15 mAu*s.
